Common to all, as to format: functional
Assay [1] relates to Cavia porcellus. In words: In vivo percent inhibition of ovalbumin induced bronchospasm in sensitized guinea pig after peroral administration at dose of 1 mg/kg for single dose. Conditions: route oral.
Assay [2] relates to Cavia porcellus. In words: In vivo percent inhibition of ovalbumin induced bronchospasm in sensitized guinea pig after peroral administration at dose of 0.25 mg/kg for single dose. The settings on record: route oral.
For assay [3], the species on record is Cavia porcellus. Put plainly: In vitro percent inhibition of LTD4 release from sensitized guinea pig lung fragment at dose of 3 uM.
Assay [4] deals with Cavia porcellus. Put plainly: In vivo percent inhibition of ovalbumin induced bronchospasm in sensitized guinea pig after peroral administration at dose of 0.5 mg/kg for multiple dose. The settings on record: route oral.
Assay [5] is filed under the species Cavia porcellus. Put plainly: In vitro percent inhibition of LTD4 release from sensitized guinea pig lung fragment at dose of 1 uM.
For assay [6], the system named is Cavia porcellus. In words: In vivo percent inhibition of ovalbumin induced bronchospasm in sensitized guinea pig after peroral administration at dose of 2 mg/kg for single dose. Conditions: route oral.
For assay [7], the system named is Cavia porcellus. Put plainly: In vivo percent inhibition of ovalbumin induced bronchospasm in sensitized guinea pig after peroral administration at dose of 0.5 mg/kg for single dose. The settings on record: route oral.
For assay [8], the species on record is Cavia porcellus. In words: In vitro percent inhibition of LTD4 release from sensitized guinea pig lung fragment at dose of 10 uM.
Assay [9] has as its system Cavia porcellus. In words: In vivo percent inhibition of ovalbumin induced bronchospasm in sensitized guinea pig after peroral administration at dose of 5 mg/kg for single dose. The settings on record: route oral.
The subject of assay [10] is Cavia porcellus. In words: In vivo percent inhibition of ovalbumin induced bronchospasm in sensitized guinea pig after peroral administration at dose of 25 mg/kg for single dose. The settings on record: route oral.
In assay [11] the test system is Cavia porcellus. In words: In vivo percent inhibition of ovalbumin induced bronchospasm in sensitized guinea pig after peroral administration at dose of 12.5 mg/kg for multiple dose. Conditions: route oral.
Assay [12] concerns Cavia porcellus. In words: In vivo percent inhibition of ovalbumin induced bronchospasm in sensitized guinea pig after peroral administration at dose of 3.13 mg/kg for multiple dose. Conditions: route oral.
Assay [13] deals with Cavia porcellus. In words: In vivo percent inhibition of ovalbumin induced bronchospasm in sensitized guinea pig after peroral administration at dose of 6.25 mg/kg for multiple dose. Conditions: route oral.
Assay [14] concerns Cavia porcellus. In words: In vivo percent inhibition of ovalbumin induced bronchospasm in sensitized guinea pig after peroral administration at dose of 1 mg/kg for multiple dose. Conditions: route oral.
Assay [15] has as its system Cavia porcellus. Put plainly: In vivo percent inhibition of ovalbumin induced bronchospasm in sensitized guinea pig after peroral administration at dose of 2 mg/kg for multiple dose. The settings on record: route oral.
Assay [16] deals with Cavia porcellus. In words: In vivo percent inhibition of ovalbumin induced bronchospasm in sensitized guinea pig after peroral administration at dose of 10 mg/kg for single dose. Conditions: route oral.
The subject of assay [17] is Cavia porcellus. Put plainly: In vivo percent inhibition of ovalbumin induced bronchospasm in sensitized guinea pig after peroral administration at dose of 12 mg/kg for single dose. The settings on record: route oral.
The subject of assay [18] is Cavia porcellus. In words: In vivo percent inhibition of ovalbumin induced bronchospasm in sensitized guinea pig after peroral administration at dose of 3 mg/kg for single dose. The settings on record: route oral.

By inhibition in vivo is commonly meant how much of the control response was suppressed. As a reminder, the inhibition is the percentage by which the read-out fell short of the control. As for `O=c1c2c(c3cccnc3n1-c1cccc(Cl)c1)OCCCC2`, the inhibition in vivo at 1 mg/kg with Cavia porcellus [1] worked out at 74%. For the same compound, the inhibition in vivo at 0.25 mg/kg in the assay on Cavia porcellus [2] worked out at 27%. Besides, the inhibition at 3 µM in the assay listed under Cavia porcellus [3] amounted to 62%. Also, the inhibition in vivo at 0.5 mg/kg was 50% in the assay on Cavia porcellus [4] and 62% in the assay on Cavia porcellus [7]. In addition, the inhibition at 1 µM in the assay filed under Cavia porcellus [5] worked out at 100%. Also, the inhibition in vivo at 2 mg/kg in the assay with Cavia porcellus [6] is 85%.
Take `O=c1c2c(c3cccnc3n1-c1ccc(Cl)c(Cl)c1)OCC2`: the inhibition at 10 µM in the assay filed under Cavia porcellus [8] is 63%. In addition, the inhibition in vivo at 5 mg/kg in the assay with Cavia porcellus [9] came out at 0%. Moreover, the inhibition at 3 µM in the assay filed under Cavia porcellus [3] turned out to be 62%.
For the compound `O=c1c2c(c3cccnc3n1-c1ccccc1)OCCCC2`, the inhibition at 3 µM in the assay filed under Cavia porcellus [3] came to 75%. The inhibition in vivo at 2 mg/kg with Cavia porcellus [6] stood at 71%.
With `Cc1ccc(-n2c(=O)c3c(c4cccnc42)OCC3)cc1`, the inhibition at 10 µM in the assay listed under Cavia porcellus [8] amounted to 59%. The inhibition at 3 µM in the assay listed under Cavia porcellus [3] amounted to 28%.
Take `O=c1c2c(c3cccnc3n1-c1ccccc1)OCCC2`: the inhibition in vivo at 25 mg/kg with Cavia porcellus [10] was determined as 62%. The inhibition at 10 µM in the assay listed under Cavia porcellus [8] is 62%. The inhibition in vivo at 12.5 mg/kg in the assay on Cavia porcellus [11] was found to be 43%. Also, in the assay filed under Cavia porcellus [3], the inhibition at 3 µM amounted to 26%. Also, in the assay on Cavia porcellus [12], the inhibition in vivo at 3.13 mg/kg is 20%. Further, in the assay with Cavia porcellus [13], the inhibition in vivo at 6.25 mg/kg came to 51%.
Turning to `COc1ccc(-n2c(=O)c3c(c4cccnc42)OCC3)cc1`, in the assay filed under Cavia porcellus [3], the inhibition at 3 µM was 17%.
On the same count and under the same terms, then `O=c1c2c(c3cccnc3n1-c1ccc(Cl)cc1)OCCC2`, with 33%.
As to `O=c1c2c(c3cccnc3n1-c1cccc(Cl)c1)OCC2`, the inhibition in vivo at 1 mg/kg in the assay with Cavia porcellus [14] amounted to 21%. The inhibition in vivo at 2 mg/kg came out at 62% in the assay on Cavia porcellus [15] and 87% in the assay with Cavia porcellus [6]. Moreover, in the assay listed under Cavia porcellus [3], the inhibition at 3 µM is 71%. Besides, the inhibition in vivo at 10 mg/kg in the assay on Cavia porcellus [16] was 93%.
As for `COc1ccc(-n2c(=O)c3c(c4cccnc42)OCCC3)cc1`, the inhibition at 3 µM in the assay listed under Cavia porcellus [3] stood at 28%.
As for `O=c1c2c(c3cccnc3n1-c1ccccc1)OCC2`, the inhibition in vivo at 25 mg/kg in the assay on Cavia porcellus [10] worked out at 79%. In addition, the inhibition in vivo at 12 mg/kg with Cavia porcellus [17] stood at 86%. For the same compound, in the assay listed under Cavia porcellus [8], the inhibition at 10 µM came to 72%. Also, the inhibition in vivo at 12.5 mg/kg with Cavia porcellus [11] stood at 90%. In addition, in the assay listed under Cavia porcellus [3], the inhibition at 3 µM was found to be 54%. Besides, the inhibition in vivo at 3 mg/kg in the assay with Cavia porcellus [18] stood at 42%. The inhibition in vivo at 6.25 mg/kg in the assay on Cavia porcellus [13] turned out to be 65%.
As to `O=c1c2c(c3cccnc3n1-c1ccc(Cl)c(Cl)c1)OCCC2`, in the assay listed under Cavia porcellus [3], the inhibition at 3 µM is 48%.
`O=c1c2c(c3cccnc3n1-c1ccc(Cl)cc1)OCC2`: the inhibition at 3 µM in the assay filed under Cavia porcellus [3] was 33%.
On to `CC1Cc2c(c3cccnc3n(-c3ccccc3)c2=O)O1` (stereo unspecified), for which the inhibition at 10 µM in the assay listed under Cavia porcellus [8] stood at 60%.
`Cc1ccc(-n2c(=O)c3c(c4cccnc42)OCCC3)cc1`: the inhibition at 3 µM in the assay listed under Cavia porcellus [3] turned out to be 27%.
`CC1Cc2c(c3cccnc3n(-c3cccc(Cl)c3)c2=O)O1` (stereo unspecified): the inhibition at 1 µM in the assay filed under Cavia porcellus [5] came out at 64%. Moreover, the inhibition in vivo at 2 mg/kg with Cavia porcellus [6] came to 38%.

Values taken from ChEMBL document CHEMBL1152000, “Anti-allergy agents. 3. Angular tricyclic ether derivatives of the 1,8-naphthyridin-2(1H)-one ring system” (1994).
